Literature values as cited in patent US20140248600A1, “BLOOD TREATMENT APPARATUS ADAPTED TO PRESERVE PARTS THEREOF” (Gambro Lundia AB, priority 2011, published 2014).

Tested on: C. albicans
Details: resulting pH: acetic acid 3.6; citric acid 2.4; succinic acid 2.8; tartaric acid 2.3; fumaric acid 2.6; maleic acid 2.0; control pH 5.5

| Compound | Growth of C. albicans with acid added to the medium |
| --- | --- |
| O=C(O)/C=C/C(=O)O [fumaric] | inhibition of growth |
| O=C(O)C(O)C(O)C(=O)O (stereo not drawn) [tartaric acid] | grew as well as the control |
| O=C(O)CC(O)(CC(=O)O)C(=O)O [citric acid] | grew as well as the control |
| O=C(O)CCC(=O)O [succinic acid] | grew as well as the control |
| O=C(O)/C=C\C(=O)O [maleic acid] | inhibition of growth |
| CC(=O)O [acetic acid] | grew as well as the control |
